In ChEMBL document CHEMBL5338805, “Discovery of the First Subnanomolar PPARα/δ Dual Agonist for the Treatment of Cholestatic Liver Diseases” (J Med Chem, 2023):
Activity calls are given as the source filed them. No cut-off for these calls is given here.

What was measured:
[1] = biological target: Bile acid receptor (Homo sapiens) (UniProt Q96RI1); test: Agonist activity at FXR (unknown origin) transfected in african green monkey COS7 cells assessed transactivation incubated at 1 uM for 16 hrs by luciferase assay; type: cell-based
[2] = biological target: Retinoic acid receptor beta (Homo sapiens) (UniProt P10826); test: Agonist activity at RARbeta (unknown origin) transfected in african green monkey COS7 cells assessed transactivation incubated at 1 uM for 16 hrs by luciferase assay; type: cell-based
[3] = biological target: Retinoic acid receptor gamma (Homo sapiens) (UniProt P13631); test: Agonist activity at RARgamma (unknown origin) transfected in african green monkey COS7 cells assessed transactivation incubated at 1 uM for 16 hrs by luciferase assay; type: cell-based
[4] = biological target: Nuclear receptor ROR-beta (Homo sapiens) (UniProt Q92753); test: Agonist activity at RORbeta (unknown origin) transfected in african green monkey COS7 cells assessed transactivation incubated at 1 uM for 16 hrs by luciferase assay; type: cell-based
[5] = AUC in fasted Sprague-Dawley rat at 2 mg/kg, IV measured at 0.083 to 24 hrs by LC-MS/MS analysis; type: ADME, organism-based; set-up: dose 2 mg/kg, time upper 24 hrs, time lower 0.083 hrs, route iv; details: in vivo
[6] = Oral bioavailability in fasted Sprague-Dawley rat at 10 mg/kg measured at 0.083 to 24 hrs by LC-MS/MS analysis; type: ADME, organism-based; details: in vivo, time 0.083-24 hrs
[7] = Acute toxicity in mouse assessed as lethal dose administered orally for 14 days; details: in vivo, po, 336 h, time 14 day
[8] = Down-streaming of Cyp7a1 gene expression in C57BL/6JNifdc mouse liver assessed as hepatic resorption of bile acid administered at 0.03 to 0.1 mg/kg, po for 3 days measured after 6 hrs of last administration by real-time PCR analysis; type: ADME, organism-based; details: in vivo, 78 h, dose 0.03-0.1 mg/kg, time 3.25 day
[9] = Upregulation of Mdr2 gene expression in C57BL/6JNifdc mouse liver assessed as increased efflux of bile acid administered at 0.03 to 0.1 mg/kg, po for 3 days measured after 6 hrs of last administration by real-time PCR analysis; type: ADME, organism-based; details: in vivo, 78 h, dose 0.03-0.1 mg/kg, time 3.25 day
[10] = Anti-cholestatic activity in ANIT-induced C57BL/6Nifdc mouse model assessed as decrease in liver TCA at 0.03 to 0.1 mg/kg, po upto 42 hrs measured after 48 hrs; type: ADME, organism-based; details: in vivo, 90 h, dose 0.03-0.1 mg/kg
[11] = Anti-cholestatic activity in ANIT-induced C57BL/6Nifdc mouse model assessed as decrease in liver CA at 0.03 to 0.1 mg/kg, po upto 42 hrs measured after 48 hrs; type: ADME, organism-based; details: in vivo, 90 h, dose 0.03-0.1 mg/kg
[12] = Anti-cholestatic activity in ANIT-induced C57BL/6Nifdc mouse model assessed as decrease in liver DHLCA at 0.03 to 0.1 mg/kg, po upto 42 hrs measured after 48 hrs; type: ADME, organism-based; details: in vivo, 90 h, dose 0.03-0.1 mg/kg
[13] = Anti-cholestatic activity in ANIT-induced C57BL/6Nifdc mouse model assessed as decrease in liver 12-OCDCA at 0.03 to 0.1 mg/kg, po upto 42 hrs measured after 48 hrs; type: ADME, organism-based; details: in vivo, 90 h, dose 0.03-0.1 mg/kg
[14] = Anti-fibrosis activity in Ccl4-induced C57BL/6Nifdc mouse model assessed as decrease in hydroxyproline in liver administered orally for 3 weeks; type: ADME; details: in vivo, po, 504 h, dose 0.03-0.1 mg/kg
[15] = Anti-fibrosis activity in Ccl4-induced C57BL/6Nifdc mouse model assessed as reversal of increased alpha-SMA administered orally for 3 weeks by Western blot analysis; type: ADME; details: in vivo, po, 504 h, dose 0.03-0.1 mg/kg
[16] = Anti-fibrosis activity in Ccl4-induced C57BL/6Nifdc mouse model assessed as decrease in serum triglyceride level administered at 0.03 to 0.1 mg/kg,po for 3 weeks; type: ADME, organism-based; details: in vivo, 504 h, dose 0.03-0.1 mg/kg
[17] = In vivo upregulation of PPAR delta in C57BL/6JNifdc mouse liver administered orally for 3 days measured after 6 hrs of last administration by real-time PCR analysis; type: ADME, organism-based; details: po, 78 h, dose 0.03-0.1 mg/kg
[18] = Down-streaming of Oatp1 gene expression in C57BL/6JNifdc mouse liver assessed as hepatic resorption of bile acid administered at 0.03 mg/kg, po for 3 days measured after 6 hrs of last administration by real-time PCR analysis; type: ADME, organism-based; details: in vivo, 78 h
[19] = biological target: Peroxisome proliferator-activated receptor delta (Homo sapiens) (UniProt Q03181); details: filed as agonist, dose 0.625-10 µM
Chain of Peroxisome proliferator-activated receptor delta (Homo sapiens) (Q03181 whole entry): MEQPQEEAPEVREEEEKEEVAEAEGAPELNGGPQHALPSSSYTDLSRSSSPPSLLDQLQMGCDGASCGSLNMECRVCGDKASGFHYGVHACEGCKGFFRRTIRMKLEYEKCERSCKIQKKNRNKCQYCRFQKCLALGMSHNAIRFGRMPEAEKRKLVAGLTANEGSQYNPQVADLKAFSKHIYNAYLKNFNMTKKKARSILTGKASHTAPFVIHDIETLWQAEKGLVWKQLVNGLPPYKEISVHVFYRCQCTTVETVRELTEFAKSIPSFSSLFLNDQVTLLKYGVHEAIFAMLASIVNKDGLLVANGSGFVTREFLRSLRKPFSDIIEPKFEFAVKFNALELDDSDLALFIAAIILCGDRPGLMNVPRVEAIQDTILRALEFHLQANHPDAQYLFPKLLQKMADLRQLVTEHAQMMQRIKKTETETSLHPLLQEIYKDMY
Description: Binding affinity to PPARdelta LBD (unknown origin) assessed as thermal stability by measuring change in melting temperature by thermal shift assay

Chain of Retinoic acid receptor beta (Homo sapiens) (P10826 whole entry): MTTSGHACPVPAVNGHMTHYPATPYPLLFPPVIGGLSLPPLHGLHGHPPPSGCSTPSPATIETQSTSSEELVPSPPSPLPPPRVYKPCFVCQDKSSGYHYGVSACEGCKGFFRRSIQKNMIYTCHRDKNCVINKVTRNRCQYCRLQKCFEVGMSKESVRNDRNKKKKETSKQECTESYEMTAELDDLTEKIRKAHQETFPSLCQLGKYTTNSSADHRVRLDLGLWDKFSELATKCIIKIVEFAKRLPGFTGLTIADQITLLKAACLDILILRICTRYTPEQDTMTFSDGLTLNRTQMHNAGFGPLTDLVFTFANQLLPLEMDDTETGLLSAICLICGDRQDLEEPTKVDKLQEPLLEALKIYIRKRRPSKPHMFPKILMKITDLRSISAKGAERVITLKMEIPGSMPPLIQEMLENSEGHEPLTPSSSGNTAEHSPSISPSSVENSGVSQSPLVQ
Chain of Nuclear receptor ROR-beta (Homo sapiens) (Q92753 whole entry): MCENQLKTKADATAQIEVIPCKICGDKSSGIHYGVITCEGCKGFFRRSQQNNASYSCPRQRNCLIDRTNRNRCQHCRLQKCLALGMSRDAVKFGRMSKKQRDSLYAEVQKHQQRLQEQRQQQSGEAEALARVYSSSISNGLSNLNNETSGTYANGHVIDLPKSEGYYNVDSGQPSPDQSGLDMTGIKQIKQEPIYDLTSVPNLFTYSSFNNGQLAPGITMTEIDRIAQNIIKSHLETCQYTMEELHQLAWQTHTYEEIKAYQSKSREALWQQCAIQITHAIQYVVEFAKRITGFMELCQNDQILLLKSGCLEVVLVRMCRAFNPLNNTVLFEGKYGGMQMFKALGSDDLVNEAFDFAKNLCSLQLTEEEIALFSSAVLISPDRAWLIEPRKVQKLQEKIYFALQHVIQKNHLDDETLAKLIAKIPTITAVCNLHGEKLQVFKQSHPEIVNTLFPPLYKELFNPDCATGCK
Chain of Retinoic acid receptor gamma (Homo sapiens) (P13631 whole entry): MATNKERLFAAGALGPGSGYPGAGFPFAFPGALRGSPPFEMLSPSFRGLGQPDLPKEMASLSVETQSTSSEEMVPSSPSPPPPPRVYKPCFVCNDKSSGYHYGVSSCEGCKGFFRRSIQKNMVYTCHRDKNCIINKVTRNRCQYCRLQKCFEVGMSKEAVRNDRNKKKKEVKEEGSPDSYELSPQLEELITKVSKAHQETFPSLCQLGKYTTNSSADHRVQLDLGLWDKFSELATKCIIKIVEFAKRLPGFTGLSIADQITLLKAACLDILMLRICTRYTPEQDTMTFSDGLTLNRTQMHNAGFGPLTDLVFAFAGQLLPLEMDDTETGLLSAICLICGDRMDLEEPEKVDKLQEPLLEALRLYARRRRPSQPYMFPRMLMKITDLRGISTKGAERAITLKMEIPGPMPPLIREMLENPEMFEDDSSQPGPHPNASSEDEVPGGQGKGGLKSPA
Chain of Bile acid receptor (Homo sapiens) (Q96RI1 whole entry): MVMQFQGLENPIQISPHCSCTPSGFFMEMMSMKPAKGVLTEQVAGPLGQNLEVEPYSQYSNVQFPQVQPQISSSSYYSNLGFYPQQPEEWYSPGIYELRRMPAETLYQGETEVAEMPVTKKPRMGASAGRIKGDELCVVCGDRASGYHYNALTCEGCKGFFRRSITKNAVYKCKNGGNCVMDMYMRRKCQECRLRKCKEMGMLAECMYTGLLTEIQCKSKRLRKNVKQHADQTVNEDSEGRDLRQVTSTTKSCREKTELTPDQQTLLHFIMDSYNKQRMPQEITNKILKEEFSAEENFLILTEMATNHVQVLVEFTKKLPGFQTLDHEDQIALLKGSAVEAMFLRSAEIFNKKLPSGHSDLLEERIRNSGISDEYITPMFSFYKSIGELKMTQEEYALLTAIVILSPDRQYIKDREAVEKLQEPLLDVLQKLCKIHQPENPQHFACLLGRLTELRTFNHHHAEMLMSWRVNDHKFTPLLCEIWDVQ

Structure (SMILES): Cc1cc(CN2C(=O)CN(c3ccc(C(F)(F)F)cc3)C2=O)cc(C)c1OC(C)(C)C(=O)O
- Activity [1]: inactive
- Activity [2]: inactive
- Activity [3]: inactive
- Activity [4]: inactive
- AUC [5]: 4250 ng·h/mL
- bioavailability [6]: 105%
- LD [7]: > 2000 mg/kg
- Activity [8]: Active
- Activity [9]: Active
- Activity [10]: Active
- Activity [11]: Active
- Activity [12]: Active
- Activity [13]: Active
- Activity [14]: Dose-Dependent Effect
- Activity [15]: Dose-Dependent Effect
- Activity [16]: Active
- Activity [17]: Dose-Dependent Effect
- Activity [18]: Active
- deltaTm [19]: Dose-Dependent Effect
